Test results: CN114306288A, “一种卡巴拉汀长效经皮吸收贴剂及其制备方法” (priority 2022, dated 2022)

Test: In vitro transdermal permeation test (Franz horizontal two-chamber diffusion cell, pig ear skin)
Type: in vitro ADME
Settings: Examples 33-38, compared with no enhancer; 0.1 g enhancer, 1 mmol rivastigmine salicylate ionic liquid in 2 g adhesive (Example 10); result in words

SMILES	promotion of rivastigmine cumulative permeation amount by transdermal absorption enhancer
CCCCCCCC/C=C\CCCCCCCC(=O)O [油酸]	没有显著促进
CC1CCC(C(C)C)C(O)C1 (centres unmarked) [薄荷醇]	没有显著促进
